The target in one experiment is T1, CISH-EloBC (Homo sapiens, UniProt Q9NSE2, DEL174-202).
T1 construct: CISH (66-258 Δ174-202) was codon-optimized for bacterial expression; GST (from pGEX-6P-1); made in house; host or cells: E. coli BL21(DE3)
The experiment can be described thus: Intact ESI-MS of recombinant protein, covalent modification. The note with it: CISH + MN551 (1:1, 40 µM), 0 min. Type of experiment: biochemical. The source says:
(§1) Having established the specificity of MN551 for covalent modification of Cys111 of SOCS2, we turned our attention to the intra-SOCS family selectivity of MN551. We performed a multiple sequence alignment of the SH2 domains from all the SOCS proteins (Fig. 3a). The Cys111 targeted by MN551 for covalency is part of the EF loop in SOCS2. Beyond SOCS2, other family members SOCS4, SOCS5, SOCS7, and CISH also have a cysteine in the same loop (Fig. 3a), and given the expected conserved ligand binding mode, they could all be engaged by MN551. To verify our hypothesis, we incubated recombinant SOCS/EloBC complexes of SOCS4 (SBC4), SOCS6 (SBC6), and CISH with MN551 for 2 h and analyzed for covalent modification of the SOCS proteins by intact ESI-MS (Fig. 3b–d). These proteins were chosen as SOCS4 and SOCS6 are already structurally well characterized, and because SOCS4 Cys350, and CISH Cys144 are in a similar position as Cys111 in SOCS2, whereas SOCS6 is lacking cysteines in the EF loop[36]–[38]. […] Although SOCS6 lacks a cysteine in its EF loop, Cys471 from the BG loop is predicted to be in close proximity to the chloroacetamide functional group of MN551, as evident from the superposed SOCS2 and SOCS6 structures, potentially explaining the modification, albeit minimal (Fig. 3f). Structure-guided improvements upon this observed MN551-SOCS6 covalency could expedite future attempts in development of covalent binders for SOCS6. In the absence of a PDB structure for CISH, we overlayed SOCS2-SH2 domain with an AlphaFold model generated for the CISH SH2 domain with deletions in the N-terminus and the PEST sequence (66-258, Δ174-202, Fig. 3g). Amongst all the SOCSs, CISH has the highest sequence identity to SOCS2-SH2 and the presence of a conserved Cys144 in the EF loop together likely explain its complete covalent modification by MN551.
(§2) SBC2 protein (40 µM), SBC2 C111S, SBC4, SBC6, or CISH were incubated with an equimolar concentration of MN551 in 50 mM Tris, pH 8.0, 50 mM NaCl, 1 mM TCEP. At defined time points 20 µl samples were removed and the protein precipitated by the addition of 80 µl methanol. The precipitated protein was pelleted by centrifugation, washed with 500 µl methanol, and resuspended in an aqueous solution of 15% acetonitrile and 1% TFA. Samples were separated by HPLC on a C3 column using a 10–75% gradient of acetonitrile and analyzed using an Agilent 6130 quadrupole MS. Spectra were deconvoluted and integrated using Agilent LC/MSD ChemStation.

For another experiment, the target named is T2, SOCS4-EloBC (SBC4) (Homo sapiens, UniProt Q8WXH5).
T2 construct: SOCS4 (amino acids 274-437); made in house; E. coli implied
The experiment is described as above. Type of experiment: biochemical. The following applies: SOCS4 + MN551 (1:1, 40 µM), 0 min.
Text: as §1, §2

A further experiment concerns the target T3, SOCS6-EloBC (SBC6) (Homo sapiens, UniProt O14544).
T3 construct: SOCS6 (amino acids 353-535); His6-GST (N, cleaved yes); made in house; E. coli implied
The experiment is described as above. Type of experiment: biochemical. The following applies: SOCS6 + MN551 (1:1, 40 µM).
Text: as §1, §2

The next experiment has as its target T4, SOCS2 (Homo sapiens, UniProt O14508).
T4 construct: endogenous SOCS2 from K562 lysates; endogenous in cells; host or cells: K562
T4 sequence (O14508 1-198): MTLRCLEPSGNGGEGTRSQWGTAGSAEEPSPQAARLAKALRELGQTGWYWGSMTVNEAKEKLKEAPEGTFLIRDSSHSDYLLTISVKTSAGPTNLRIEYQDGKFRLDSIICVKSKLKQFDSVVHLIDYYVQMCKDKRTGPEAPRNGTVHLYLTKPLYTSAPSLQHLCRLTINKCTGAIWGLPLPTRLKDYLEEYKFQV
The experiment in a line: SOCS2 pulldown with biotinylated GHR_pY595 peptide from K562 cells pre-treated with compound. Type of experiment: cell-based. The note with it: K562 cells pre-treated with 10 µM for 6 h. On the procedure: Pulldown of cellular SOCS2 was abrogated when K562 cells were pre-treated for 6 h with MN714 prior to cell lysis, further evidencing the inhibitor cell permeability and specific target engagement (Fig. 6c).
K562 cells were treated with either DMSO or 10 µM MN714 for 6 h before being lysed. For experiments with MN551, DMSO-treated lysate was used. DMSO-treated K562 lysate (1 mg/ml) was pre-cleared using control agarose beads (Pierce Control Agarose Resin, 26150) which were washed thrice using 50 mM Tris pH 7.4, 150 mM NaCl buffer. […] Unbound peptide was washed off through 3× cycles of buffer wash and spin. Beads were resuspended to a total volume of 100 µl per IP sample. 100 µl beads with immobilized peptides was added to the MN551 lysate tubes. Samples were incubated for 40 min at room temperature. Samples were spun and unbound supernatant was removed. Beads were washed 3× with 0.05% NP40, 50 mM Tris pH 7.4, 150 mM NaCl buffer before being resuspended in 35 µl 1× LDS. Samples were heated for 10 min at 95 °C after which the elute was transferred to a fresh tube. 20 µl of each sample was analyzed by Western Blot (4-12% Bis-Tris gel 180 V, 60 mins) before blotting for SOCS2 (ab109245, 1:1000 dilution) overnight at 4 °C. Uncropped blot images collected with ChemiDoc Touch imaging system (BioRad) operated by Image Lab (v2.4.0.03) and antibody validation provided in Source Data. […]

“And” between values parts separate entries of the source, which are not always exact repeats. Identical values can stand only once. “Also recorded” adds a separate entry of the source.

In the case of `O=C(CCl)Nc1cccc(CNC(=O)[C@H](Cc2ccc(OP(=O)(O)O)cc2)NC(=O)Cc2ccc(F)cc2)c1` [MN551], the “% modified” value at CISH-EloBC and on SOCS4-EloBC (SBC4) was 0.0% each time. The “% double-modified” value is on record as 0.0% on SOCS6-EloBC (SBC6) (0 min) and 2.6% at SOCS6-EloBC (SBC6) (120 min). In addition, the “% modified (single adduct)” value on SOCS6-EloBC (SBC6) (0 min) is 0.0%; at SOCS6-EloBC (SBC6) (120 min), 18% and 18.3%.
As for `CC(C)(C)C(=O)OCOP(=O)(OCOC(=O)C(C)(C)C)Oc1ccc(C[C@H](NC(=O)Cc2ccc(F)cc2)C(=O)NCc2cccc(NC(=O)CCl)c2)cc1` [MN714], the “pulldown of cellular SOCS2 with GHR pY595 peptide” value at SOCS2 is listed as “abrogated; also recorded: effective blockade of SOCS2-GHRpY interaction”.

Values taken from article PMC10564737, “Structure-based design of a phosphotyrosine-masked covalent ligand targeting the E3 ligase SOCS2” (Nature Communications, 2023).
